Experimental data taken from ChEMBL document CHEMBL5154818, “Development of oxoisoaporphine derivatives with topoisomerase I inhibition and reversal of multidrug resistance in breast cancer MCF-7/ADR cells” (Eur J Med Chem, 2022).
Calls of active or inactive are those of the source. The calls are words filed in the database; no cut-off is given here.

Tests used:
[1] = system: MCF7; assay: Induction of cell cycle arrest in human MCF7 cells assessed accumulation of cells at S phase at 8 uM measured after 48 hrs by propidium iodide staining based flow cytometric analysis (reference value: 27.53%); type: functional
[2] = target: ATP-dependent translocase ABCB1 (Homo sapiens, UniProt P08183); assay: Inhibition of P-gp-mediated multidrug resistance in human MCF7/ADR cells at 10 to 20 uM assessed as rhodamine123 accumulation treated with rhodamine123 measured after 24 hrs by flow cytometry; type: cell-based; details: nci/adr-res, dose 10-20 µM
ATP-dependent translocase ABCB1, sequence (P08183 whole entry): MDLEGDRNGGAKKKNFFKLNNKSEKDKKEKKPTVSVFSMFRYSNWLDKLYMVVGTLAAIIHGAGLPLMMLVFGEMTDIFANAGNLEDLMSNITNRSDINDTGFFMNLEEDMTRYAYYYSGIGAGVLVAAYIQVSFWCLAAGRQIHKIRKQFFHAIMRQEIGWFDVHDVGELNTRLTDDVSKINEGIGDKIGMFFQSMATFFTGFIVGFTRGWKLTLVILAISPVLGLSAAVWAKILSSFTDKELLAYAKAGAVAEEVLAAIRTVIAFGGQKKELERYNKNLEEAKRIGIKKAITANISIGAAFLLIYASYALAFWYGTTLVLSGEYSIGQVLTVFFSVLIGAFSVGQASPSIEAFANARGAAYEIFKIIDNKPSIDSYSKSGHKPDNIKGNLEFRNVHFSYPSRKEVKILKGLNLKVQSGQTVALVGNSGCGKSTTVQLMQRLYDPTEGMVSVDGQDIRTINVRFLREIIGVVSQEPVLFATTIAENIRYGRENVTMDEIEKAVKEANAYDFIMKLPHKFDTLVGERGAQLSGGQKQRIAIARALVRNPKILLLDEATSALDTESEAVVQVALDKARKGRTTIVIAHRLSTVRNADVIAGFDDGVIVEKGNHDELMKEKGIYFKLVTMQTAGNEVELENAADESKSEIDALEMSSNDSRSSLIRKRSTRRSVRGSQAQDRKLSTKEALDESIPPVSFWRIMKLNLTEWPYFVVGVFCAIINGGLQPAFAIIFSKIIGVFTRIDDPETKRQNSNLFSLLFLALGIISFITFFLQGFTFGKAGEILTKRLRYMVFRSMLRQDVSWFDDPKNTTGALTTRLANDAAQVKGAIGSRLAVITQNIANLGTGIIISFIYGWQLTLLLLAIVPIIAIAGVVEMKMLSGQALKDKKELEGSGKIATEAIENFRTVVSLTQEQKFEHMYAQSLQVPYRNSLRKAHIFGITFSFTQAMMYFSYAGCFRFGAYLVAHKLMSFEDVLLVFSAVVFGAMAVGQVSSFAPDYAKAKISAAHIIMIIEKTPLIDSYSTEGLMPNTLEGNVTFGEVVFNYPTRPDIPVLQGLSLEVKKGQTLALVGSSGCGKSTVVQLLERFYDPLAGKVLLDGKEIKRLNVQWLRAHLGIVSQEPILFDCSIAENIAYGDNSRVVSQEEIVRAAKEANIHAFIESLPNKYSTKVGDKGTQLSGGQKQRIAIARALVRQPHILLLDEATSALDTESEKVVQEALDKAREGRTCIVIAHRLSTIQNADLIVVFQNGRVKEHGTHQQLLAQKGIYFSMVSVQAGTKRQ

[3] = system: NCI/ADR-RES; assay: Antiproliferative activity against human MCF7/ADR cells after 48 hrs by MTT assay; type: functional, cell-based
[4] = target: T1, DNA topoisomerase 1 (Homo sapiens) (UniProt P11387); assay: Inhibition of human DNA topoisomerase 1 assessed as reduction in pBR322 DNA relaxation at 50 to 100 uM measured by gel electrophoresis method; details: dose 50-100 µM
T1 sequence (whole entry): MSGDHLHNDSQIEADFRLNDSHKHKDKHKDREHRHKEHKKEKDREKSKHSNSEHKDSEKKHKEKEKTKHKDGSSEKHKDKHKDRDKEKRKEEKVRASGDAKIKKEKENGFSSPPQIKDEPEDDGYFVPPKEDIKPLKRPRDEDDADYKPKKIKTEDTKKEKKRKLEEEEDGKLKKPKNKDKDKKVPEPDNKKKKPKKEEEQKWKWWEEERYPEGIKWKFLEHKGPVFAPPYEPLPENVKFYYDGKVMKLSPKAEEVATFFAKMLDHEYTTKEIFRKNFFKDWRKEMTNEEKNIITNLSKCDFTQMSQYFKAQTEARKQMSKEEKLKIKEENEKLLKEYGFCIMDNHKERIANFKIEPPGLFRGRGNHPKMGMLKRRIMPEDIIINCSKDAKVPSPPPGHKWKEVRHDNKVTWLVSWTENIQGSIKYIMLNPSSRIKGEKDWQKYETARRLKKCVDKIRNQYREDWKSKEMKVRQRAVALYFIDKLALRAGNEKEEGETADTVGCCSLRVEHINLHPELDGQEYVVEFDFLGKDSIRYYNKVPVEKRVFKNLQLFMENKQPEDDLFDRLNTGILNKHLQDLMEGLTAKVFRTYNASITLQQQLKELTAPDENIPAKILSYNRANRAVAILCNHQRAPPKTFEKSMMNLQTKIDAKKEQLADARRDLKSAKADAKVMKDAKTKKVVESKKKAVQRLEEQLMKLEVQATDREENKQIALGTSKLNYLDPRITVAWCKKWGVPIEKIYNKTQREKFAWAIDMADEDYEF

[5] = system: MCF7; assay: Induction of cell cycle arrest in human MCF7 cells assessed accumulation of cells at G1 phase at 8 uM measured after 48 hrs by propidium iodide staining based flow cytometric analysis (reference value: 45.94%); type: functional
[6] = Toxicity in BALB/c nude mouse xenografted with human MCF7 cells assessed as spleen tissue damage at 1 to 10 mg/kg, ip administered 3 times a week for 3 weeks; type: organism-based; details: in vivo, 504 h, dose 1-10 mg/kg

CC1CCCCN1CCOc1ccc2c3c(nccc13)-c1ccccc1C2=O (stereo unspecified)
Activity [1]: 24.3% | inhibition (INH) [2]: Active | IC50 [3]: 7.64 µM | inhibition [4]: Active | Activity [5]: 53.27% | Activity [6]: Non-Toxic
